Where two headings read alike, the source gives them in different places.
Experiments:
[1] = system: normal human umbilical vein endothelial cells (HUVEC); assay: HUVEC growth inhibition assay (VEGF-induced); assay type: cell-based
Method: The absorbance value was measured with ENVISION™ (PerkinElmer Co., Ltd.) at 450 nm. The absorbance values of the wells without adding the test substance but with VEGF addition was defined as 100% and the absorbance values of the wells with neither the test substance nor VEGF addition was defined as 0%.

[2] = system: human stomach cancer cell line SNU-16 (FGFR2 gene amplification); assay: SNU-16 growth inhibition assay; assay type: cell-based
Method: In this assay, the growth inhibitory activity of a test substance in a human stomach cancer cell line harboring FGFR2 gene amplification is measured.
Then, 10 μL of Cell Counting Kit-8 (Dojindo Laboratories, CK04) was added to each well, and the resultant was incubated for 1 to 2 hours in a 5% CO2 incubator (37° C.) to cause a color reaction. The absorbance value was measured with ENVISION™ (PerkinElmer Co., Ltd.) at 450 nm.

[3] = Homo sapiens, HUVEC, 72 h, read-out: HUVEC (IC50 (nM)), growth in the presence of VEGF 10 ng/mL, 3 days
[4] = Homo sapiens, SNU-16, 72 h, read-out: SNU-16 (IC50 (nM)), cell growth, 3 days, Cell Counting Kit-8
[5] = Homo sapiens, SNU-16, 72 h, read-out: SNU-16 (IC50 (nM))

| IC50 [2, 5] | Structure (SMILES) | IC50 [1, 3] | IC50 [2, 4] | also measured |
| --- | --- | --- | --- | --- |
| – | CNC(=O)n1ccc2cc(Oc3ccnc(NC(=O)c4ccc(C5CN(C(C)C)C5)cc4)c3)c(OC)cc21 [Example 47] | 174 nM | 13.1 nM | – |
| 8.5 nM | CNC(=O)n1ccc2cc(Oc3ccnc(NC(=O)c4ccc(C5CN(C(C)C)C5)cc4)c3)c(OCCCOC)cc21 [Example 123] | – | – | – |
| – | CNC(=O)n1ccc2cc(Oc3ccnc(NC(=O)c4ccc(C5CCN(C)CC5)cc4)c3)c(OCCCOC)cc21 [Example 130] | 254 nM | 6.8 nM | – |
| – | CNC(=O)n1ccc2cc(Oc3ccnc(NC(=O)c4cnn(C5CCN(C(C)C)CC5)c4)c3)c(OC)cc21 [Example 46] | 402 nM | 17.4 nM | – |
| – | CNC(=O)n1ccc2cc(Oc3ccnc(NC(=O)c4ccc(CN5C[C@H](OC)[C@@H](O)C5)cc4)c3)c(OC)cc21 [Example 10, 5-((2-(4-(((3S,4S)-3-Hydroxy-4-methoxypyrrolidin-1-yl)methyl)benzamide)pyridin-4-yl)oxy)-6-methoxy-N-methyl-1,4-indole-1-carboxamide] | 350 nM | 28.7 nM | – |
| – | CNC(=O)n1ccc2cc(Oc3ccnc(NC(=O)c4ccc(C5CN(C[C@@H](C)O)C5)cc4)c3)c(OCCCOC)cc21 [Example 118] | 183 nM | 8.6 nM | – |
| – | CCOc1cc2c(ccn2C(=O)NC)cc1Oc1ccnc(NC(=O)c2ccc(CN3CCC(O)CC3)cc2)c1 [Example 65] | 575 nM | 23.6 nM | – |
| – | CNC(=O)n1ccc2cc(Oc3ccnc(NC(=O)c4ccc(OC5CCN(C[C@H](C)O)CC5)cc4)c3)c(OC)cc21 [Example 42] | 184 nM | 14.1 nM | – |
| – | CNC(=O)n1ccc2cc(Oc3ccnc(NC(=O)c4ccc(C5CCNCC5F)cc4)c3)c(OC)cc21 (centres unmarked) [Example 6, 5-((2-(4-(3-Fluoropiperidin-4-yl)benzamide)pyridin-4-yl)oxy)-6-methoxy-N-methyl-1H-indole-1-carboxamide] | 180 nM | 9.1 nM | – |
| – | CNC(=O)n1ccc2cc(Oc3ccnc(NC(=O)c4ccc(C5CCN(CCCF)CC5)cc4)c3)c(OC)cc21 [Example 5, 5-((2-(4-(1-(3-Fluoropropyl)piperidin-4-yl)benzamide)pyridin-4-yl)oxy)-6-methoxy-N-methyl-1H-indole-1-carboxamide] | 387 nM | 13.4 nM | – |
| – | CCOc1cc2c(ccn2C(=O)NC)cc1Oc1ccnc(NC(=O)c2ccc(C3CCN(C(C)C)CC3)cc2)c1 [Example 59] | 253 nM | 14.5 nM | – |
| 9.7 nM | CCOc1cc2c(ccn2C(=O)NC)cc1Oc1ccnc(NC(=O)c2ccc(C3CCNCC3)cc2)c1 [Example 15, 6-Ethoxy-N-methyl-5-((2-(4-(piperidin-4-yl)benzamide)pyridin-4-yl)oxy)-1H-indole-1-carboxamide] | – | – | – |
| – | CCOCCOc1cc2c(ccn2C(=O)NC)cc1Oc1ccnc(NC(=O)c2ccc(CN3C[C@@H](C)N[C@@H](C)C3)cc2)c1 [Example 30, 5-((2-(4-(((3S,5R)-3,5-Dimethylpiperazin-1-yl)methyl)benzamide)pyridin-4-yl)oxy)-6-(2-ethoxyethoxy)-N-methyl-1H-indole-1-carboxamide] | 566 nM | – | – |
| 5.1 nM | CCOCCOc1cc2c(ccn2C(=O)NC)cc1Oc1ccnc(NC(=O)c2ccc(C3CN(CC(C)(C)O)C3)cc2)c1 [Example 95] | – | – | – |
| – | CCN1CCN(CCOc2ccc(C(=O)Nc3cc(Oc4cc5ccn(C(=O)NC)c5cc4OC)ccn3)cc2)CC1 [Example 55] | 201 nM | 20.8 nM | – |
| – | CCOCCOc1cc2c(ccn2C(=O)NC)cc1Oc1ccnc(NC(=O)c2ccc(CN3CCC[C@@H]3CO)s2)c1 [Example 98] | 228 nM | 6.3 nM | – |
| – | CCOCCOc1cc2c(ccn2C(=O)NC)cc1Oc1ccnc(NC(=O)c2ccc(CN3CC[C@H](O)C3)cc2)c1 [Example 105] | 687 nM | 7.8 nM | – |
| – | CCOCCOc1cc2c(ccn2C(=O)NC)cc1Oc1ccnc(NC(=O)c2ccc(CN3CCC(O)CC3)s2)c1 [Example 101] | 182 nM | 6.8 nM | – |
| – | CCOCCOc1cc2c(ccn2C(=O)NC)cc1Oc1ccnc(NC(=O)c2ccc(C3CN(C)C3)cc2)c1 [Example 102] | – | – | IC50 ([1]; read-out: HUVEC (IC50 (nM)), growth in the presence of VEGF 10 ng/mL, 3 days): 226 nM; IC50 ([2]; read-out: SNU-16 (IC50 (nM)), cell growth, 3 days, Cell Counting Kit-8): 3.7 nM |
| – | CNC(=O)n1ccc2cc(Oc3ccnc(NC(=O)c4ccc(CN5CCC[C@H]5CO)s4)c3)c(OC)cc21 [Example 35] | 139 nM | 9.8 nM | – |
| – | CNC(=O)n1ccc2cc(Oc3ccnc(NC(=O)c4ccc(N5CCC(N6CCCC6)CC5)cc4)c3)c(OC)cc21 [Example 8, 6-Methoxy-N-methyl-5-((2-(4-(4-(pyrrolidin-1-yl)piperidin-1-yl)benzamide)pyridin-4-yl)oxy)-1H-indole-1-carboxamide] | 140 nM | 15.4 nM | – |
| – | CNC(=O)n1ccc2cc(Oc3ccnc(NC(=O)c4ccc(CN5CC[C@H](O)C5)cc4)c3)c(OCCCOC)cc21 [Example 120] | 457 nM | – | – |
| 6.7 nM | CCOCCOc1cc2c(ccn2C(=O)NC)cc1Oc1ccnc(NC(=O)c2ccc(C3CCN(CC(C)(C)O)CC3)cc2)c1 [Example 109] | – | – | – |
| – | CCN1CCN(CCc2ccc(C(=O)Nc3cc(Oc4cc5ccn(C(=O)NC)c5cc4OC)ccn3)cc2)CC1 [Example 11, 5-((2-(4-(2-(4-Ethylpiperazin-1-yl)ethyl)benzamide)pyridin-4-yl)oxy)-6-methoxy-N-methyl-1H-indole-1-carboxamide] | 132 nM | 14.5 nM | – |

| IC50 [2, 5] | Structure (SMILES) | IC50 [1, 3] | IC50 [2, 4] | also measured |
| --- | --- | --- | --- | --- |
| – | CCOc1cc2c(ccn2C(=O)NC)cc1Oc1ccnc(NC(=O)c2ccc(C3CCN(CCO)CC3)cc2)c1 [Example 63] | 170 nM | 9.6 nM | – |
| 5.8 nM | CCOCCOc1cc2c(ccn2C(=O)NC)cc1Oc1ccnc(NC(=O)c2ccc(C3CCN(C(C)C)CC3)cc2)c1 [Example 110] | – | – | – |
| – | CCN1CCC(c2ccc(C(=O)Nc3cc(Oc4cc5ccn(C(=O)NC)c5cc4OCCOC)ccn3)cc2)CC1 [Example 92] | 182 nM | 5.8 nM | – |
| – | CNC(=O)n1ccc2cc(Oc3ccnc(NC(=O)c4ccc(CN5CCC[C@@H]5CO)s4)c3)c(OCCOC)cc21 [Example 82] | 264 nM | 6.2 nM | – |
| 4.7 nM | CCOCCOc1cc2c(ccn2C(=O)NC)cc1Oc1ccnc(NC(=O)c2ccc(C3CCN(C)CC3)cc2)c1 [Example 114] | – | – | – |
| 10 nM | CCOc1cc2c(ccn2C(=O)NC)cc1Oc1ccnc(NC(=O)c2ccc(C3CCN(CC(C)(C)O)CC3)cc2)c1 [Example 58] | – | – | – |
| 6.4 nM | CCOCCOc1cc2c(ccn2C(=O)NC)cc1Oc1ccnc(NC(=O)c2ccc(C3CN(C[C@@H](C)O)C3)cc2)c1 [Example 96] | – | – | – |
| 6.4 nM | CNC(=O)n1ccc2cc(Oc3ccnc(NC(=O)c4ccc(C5CCN(CCO)CC5)cc4)c3)c(OCCCOC)cc21 [Example 128] | – | – | – |
| 4.6 nM | CNC(=O)n1ccc2cc(Oc3ccnc(NC(=O)c4ccc(C5CN(CC(C)(C)O)C5)cc4)c3)c(OCCOC)cc21 [Example 79] | – | – | – |
| 5.7 nM | CCOCCOc1cc2c(ccn2C(=O)NC)cc1Oc1ccnc(NC(=O)c2ccc(C3CCN(CC)CC3)cc2)c1 [Example 113] | – | – | – |
| 3.9 nM | CNC(=O)n1ccc2cc(Oc3ccnc(NC(=O)c4ccc(C5CN(C)C5)cc4)c3)c(OCCOC)cc21 [Example 87] | – | – | – |
| 17.5 nM | CNC(=O)n1ccc2cc(Oc3ccnc(NC(=O)c4ccc(C5CCN(C)CC5)cc4)c3)c(OC(C)C)cc21 [Example 69] | – | – | – |
| 6.2 nM | CCOCCOc1cc2c(ccn2C(=O)NC)cc1Oc1ccnc(NC(=O)c2ccc(C3CCNCC3)cc2)c1 [Example 24, 6-(2-Ethoxyethoxy)-N-methyl-5-((2-(4-(piperidin-4-yl)benzamide)pyridin-4-yl)oxy)-1H-indole-1-carboxamide] | – | – | – |
| – | CCOCCOc1cc2c(ccn2C(=O)NC)cc1Oc1ccnc(NC(=O)c2ccc(CN3CC[C@@H](O)C3)cc2)c1 [Example 106] | 726 nM | – | – |
| – | CNC(=O)n1ccc2cc(Oc3ccnc(NC(=O)c4ccc(C5CCN(C(C)C)CC5)cc4)c3)c(OCCCOC)cc21 [Example 127] | 226 nM | – | – |
| 8.9 nM | CCN1CC(c2ccc(C(=O)Nc3cc(Oc4cc5ccn(C(=O)NC)c5cc4OCCCOC)ccn3)cc2)C1 [Example 124] | – | – | – |
| – | CNC(=O)n1ccc2cc(Oc3ccnc(NC(=O)c4ccc(CN5CCC[C@@H]5CO)cc4)c3)c(OCCCOC)cc21 [Example 116] | 520 nM | – | – |
| – | CNC(=O)n1ccc2cc(Oc3ccnc(NC(=O)c4ccc(CN5CCC[C@H]5CO)s4)c3)c(OCCOC)cc21 [Example 83] | 310 nM | – | – |
| 17.7 nM | CNC(=O)n1ccc2cc(Oc3ccnc(NC(=O)c4ccc(C5CCNCC5)cc4)c3)c(OC(C)C)cc21 [Example 17, 6-Isopropoxy-N-methyl-5-((2-(4-(piperidin-4-yl)benzamide)pyridin-4-yl)oxy)-1H-indole-1-carboxamide] | – | – | – |
| 7.7 nM | CCN1CCC(c2ccc(C(=O)Nc3cc(Oc4cc5ccn(C(=O)NC)c5cc4OCCCOC)ccn3)cc2)CC1 [Example 129] | – | – | – |
| 6.9 nM | CNC(=O)n1ccc2cc(Oc3ccnc(NC(=O)c4ccc(C5CN(C(C)C)C5)cc4)c3)c(OCCOC)cc21 [Example 88] | – | – | – |
| 7.5 nM | CNC(=O)n1ccc2cc(Oc3ccnc(NC(=O)c4ccc(C5CCNCC5)cc4)c3)c(OCCOC)cc21 [Example 20, 6-(2-Methoxyethoxy)-N-methyl-5-((2-(4-(piperidin-4-yl)benzamide)pyridin-4-yl)oxy)-1H-indole-1-carboxamide] | – | – | – |
| 3.6 nM | CCOCCOc1cc2c(ccn2C(=O)NC)cc1Oc1ccnc(NC(=O)c2ccc(C3CN(C[C@H](C)O)C3)cc2)c1 [Example 97] | – | – | – |

From patent US8933099B2, “Monocyclic pyridine derivative” (Eisai R&D Management Co., Ltd., priority 2013, dated 2015)
